Counter-ions that a name gives are not always drawn.
conditions: male Chinchilla rabbits, topical to right eye once daily for 3 days, 30 μL/eye/dose; dosing on day 3 at 24 h; vs control
Experimental: ROCK In Vivo Inhibition Activity-Method C
Eighteen male rabbits were randomly assigned to 3 groups (6 animals/group). […] Clinical observations and ophthalmic examinations were performed once daily. IOP was measured by TONOVET Plus before first dosing, and at 0.5, 2, 4, 6 and 24 h after each first dosing on day 1 and day 3.
The change of IOP % was calculated using the following formula: The change of IOP %(ΔIOP %)=[IOP(time)−IOP(control)]/IOP(control)*100).
Select compounds prepared as described above were assayed according to the biological procedures described in Method C.

| SMILES | ΔIOP % [%] |
| --- | --- |
| [2H]C([2H])([2H])c1ccc(C(=O)OC([2H])([2H])c2ccc([C@@]([2H])(CN)C(=O)Nc3ccc4cnccc4c3)cc2)c(C([2H])([2H])[2H])c1 [Example 6, (S)-(4-(3-amino-1-(isoquinolin-6-ylamino)-1-oxopropan-2-yl-2-d)phenyl)methyl-d2 2,4-bis(methyl-d3)benzoate dihydrochloride] | −16.08 |
| [2H]c1nccc2cc(NC(=O)[C@]([2H])(CN)c3ccc(C([2H])([2H])OC(=O)c4ccc(C([2H])([2H])[2H])cc4C([2H])([2H])[2H])cc3)ccc12 [Example 23, (S)-(4-(3-amino-1-((isoquinolin-6-yl-1-d)amino)-1-oxopropan-2-yl-2-d)phenyl) methyl-d2 2,4-bis (methyl-d3)benzoate dihydrochloride] | −0.87 |
| [2H]c1nccc2cc(NC(=O)[C@@H](c3ccc(COC(=O)c4ccc(C)cc4C)cc3)C([2H])([2H])N)ccc12 [Example 4, (S)-4-(3-amino-1-((isoquinolin-6-yl-1-d)amino)-1-oxopropan-2-yl-3,3-d2)benzyl 2,4-dimethylbenzoate dihydrochloride] | −15.63 |
| [2H]C([2H])([2H])c1ccc(C(=O)OC([2H])([2H])c2ccc([C@]([2H])(C(=O)Nc3ccc4cnccc4c3)C([2H])([2H])N)cc2)c(C([2H])([2H])[2H])c1 [Example 5, (S)-(4-(3-amino-1-(isoquinolin-6-ylamino)-1-oxopropan-2-yl-2,3,3-d3)phenyl)methyl-d2 2,4-bis(methyl-d3)benzoate dihydrochloride] | 1.19 |
| [2H]c1nccc2cc(NC(=O)[C@@H](c3ccc(C([2H])([2H])OC(=O)c4ccc(C)cc4C)cc3)C([2H])([2H])N)ccc12 [Example 12, (S)-(4-(3-amino-1-((isoquinolin-6-yl-1-d)amino)-1-oxopropan-2-yl-3,3-d2)phenyl)methyl-d2 2,4-dimethylbenzoate dihydrochloride] | −5.23 |
| [2H]c1nccc2cc(NC(=O)[C@H](CN)c3ccc(C([2H])([2H])OC(=O)c4ccc(C([2H])([2H])[2H])cc4C([2H])([2H])[2H])cc3)ccc12 [Example 20, (S)-(4-(3-amino-1-((isoquinolin-6-yl-1-d)amino)-1-oxopropan-2-yl)phenyl) methyl-d2 2,4-bis (methyl-d3)benzoate dihydrochloride] | −4.89 |
| [2H]c1nccc2cc(NC(=O)[C@@]([2H])(c3ccc(C([2H])([2H])OC(=O)c4ccc(C)cc4C)cc3)C([2H])([2H])N)ccc12 [Example 7, (S)-(4-(3-amino-1-((isoquinolin-6-yl-1-d)amino)-1-oxopropan-2-yl-2,3,3-d3)phenyl)methyl-d2 2,4-dimethylbenzoate dihydrochloride] | 0.48 |
| [2H]c1nccc2cc(NC(=O)[C@H](CN)c3ccc(COC(=O)c4ccc(C)cc4C)cc3)ccc12 [Example 1, (S)-4-(3-amino-1-((isoquinolin-6-yl-1-d)amino)-1-oxopropan-2-yl)benzyl 2,4-dimethylbenzoate] | −1.5 |
| [2H]C([2H])(OC(=O)c1ccc(C)cc1C)c1ccc([C@@H](CN)C(=O)Nc2ccc3cnccc3c2)cc1 [Example 3, (S)-(4-(3-amino-1-(isoquinolin-6-ylamino)-1-oxopropan-2-yl)phenyl)methyl-d2 2,4-dimethylbenzoate] | −5.02 |
| [2H]c1nccc2cc(NC(=O)[C@@H](c3ccc(COC(=O)c4ccc(C([2H])([2H])[2H])cc4C([2H])([2H])[2H])cc3)C([2H])([2H])N)ccc12 [Example 21, (S)-4-(3-amino-1-((isoquinolin-6-yl-1-d)amino)-1-oxopropan-2-yl-3,3-d2) benzyl 2,4-bis(methyl-d3)benzoate dihydrochloride] | −5.06 |
| [2H]c1nccc2cc(NC(=O)[C@]([2H])(CN)c3ccc(C([2H])([2H])OC(=O)c4ccc(C)cc4C)cc3)ccc12 [Example 13, (S)-(4-(3-amino-1-((isoquinolin-6-yl-1-d)amino)-1-oxopropan-2-yl-2-d)phenyl) methyl-d2 2,4-dimethylbenzoate dihydrochloride] | −8.48 |
| [2H]C([2H])(OC(=O)c1ccc(C)cc1C)c1ccc([C@H](C(=O)Nc2ccc3cnccc3c2)C([2H])([2H])N)cc1 [Example 8, (S)-(4-(3-amino-1-(isoquinolin-6-ylamino)-1-oxopropan-2-yl-3,3-d2)phenyl)methyl-d2 2,4-dimethylbenzoate dihydrochloride] | −7.52 |
| [2H]c1nccc2cc(NC(=O)[C@H](CN)c3ccc(C([2H])([2H])OC(=O)c4ccc(C)cc4C)cc3)ccc12 [Example 18, (S)-(4-(3-amino-1-((isoquinolin-6-yl-1-d)amino)-1-oxopropan-2-yl)phenyl) methyl-d2 2,4-dimethylbenzoate] | −1.1 |
| Cc1ccc(C(=O)OCc2ccc([C@@H](CN)C(=O)Nc3ccc4cnccc4c3)cc2)c(C)c1.Cl.Cl [Reference compound 1, (S)-4-(3-amino-1-(isoquinolin-6-ylamino)-1-oxopropan-2-yl)benzyl 2,4-dimethylbenzoate dihydrochloride, reference compound] | −4.35 |
| [2H]C([2H])([2H])c1ccc(C(=O)OCc2ccc([C@H](C(=O)Nc3ccc4cnccc4c3)C([2H])([2H])N)cc2)c(C([2H])([2H])[2H])c1 [Example 16, (S)-4-(3-amino-1-(isoquinolin-6-ylamino)-1-oxopropan-2-yl-3,3-d2)benzyl 2,4-bis(methyl-d3)benzoate dihydrochloride] | −1.44 |
| [2H]c1nccc2cc(NC(=O)[C@H](CN)c3ccc(COC(=O)c4ccc(C([2H])([2H])[2H])cc4C([2H])([2H])[2H])cc3)ccc12 [Example 19, (S)-4-(3-amino-1-((isoquinolin-6-yl-1-d)amino)-1-oxopropan-2-yl)benzyl 2,4-bis(methyl-d3)benzoate dihydrochloride] | −3.3 |
| [2H]C([2H])([2H])c1ccc(C(=O)OC([2H])([2H])c2ccc([C@@H](CN)C(=O)Nc3ccc4cnccc4c3)cc2)c(C([2H])([2H])[2H])c1 [Example 15, (S)-(4-(3-amino-1-(isoquinolin-6-ylamino)-1-oxopropan-2-yl)phenyl)methyl-d2 2,4-bis(methyl-d3)benzoate dihydrochloride] | −4.25 |
| [2H]c1nccc2cc(NC(=O)[C@@H](c3ccc(C([2H])([2H])OC(=O)c4ccc(C([2H])([2H])[2H])cc4C([2H])([2H])[2H])cc3)C([2H])([2H])N)ccc12 [Example 22, (S)-(4-(3-amino-1-((isoquinolin-6-yl-1-d)amino)-1-oxopropan-2-yl-3,3-d2)phenyl) methyl-d2 2,4-bis (methyl-d3)benzoate dihydrochloride] | 0.08 |
| [2H]C([2H])(N)[C@@H](C(=O)Nc1ccc2cnccc2c1)c1ccc(COC(=O)c2ccc(C)cc2C)cc1 [Example 11, (S)-4-(3-amino-1-(isoquinolin-6-ylamino)-1-oxopropan-2-yl-3,3-d2) benzyl 2,4-dimethylbenzoate dihydrochloride] | −9.57 |
| [2H]C([2H])(OC(=O)c1ccc(C)cc1C)c1ccc([C@@]([2H])(CN)C(=O)Nc2ccc3cnccc3c2)cc1 [Example 9, (S)-(4-(3-amino-1-(isoquinolin-6-ylamino)-1-oxopropan-2-yl-2-d)phenyl)methyl-d2 2,4-dimethylbenzoate dihydrochloride] | −3.06 |
| [2H]C([2H])([2H])c1ccc(C(=O)OCc2ccc([C@@H](CN)C(=O)Nc3ccc4cnccc4c3)cc2)c(C([2H])([2H])[2H])c1 [Example 14, (S)-4-(3-amino-1-(isoquinolin-6-ylamino)-1-oxopropan-2-yl)benzyl 2,4-bis(methyl-d3)benzoate dihydrochloride] | −5.81 |
| [2H]C([2H])(OC(=O)c1ccc(C)cc1C)c1ccc([C@]([2H])(C(=O)Nc2ccc3cnccc3c2)C([2H])([2H])N)cc1 [Example 10, (S)-(4-(3-amino-1-(isoquinolin-6-ylamino)-1-oxopropan-2-yl-2,3,3-d3)phenyl)methyl-d2 2,4-dimethylbenzoate dihydrochloride] | −0.78 |

Source: US11485707B2, “Deuterated compounds as rock inhibitors” (Fochon Pharmaceuticals, Ltd., priority 2018, dated 2022)
